Laboratory results: patent publication US7879344B2, “Transdermal delivery of oleocanthal for relief of inflammation” (Kimberly-Clark Worldwide, Inc., priority 2006, dated 2011)

Key:
[1] = phenolic group of oleocanthal; carboxylic acid group of ibuprofen and similar NSAIDs; cited from earlier work
[2] = solubility in fats and oils (stated in the text, no test described); assay type: physicochemical; settings: "it has been discovered", no data given
Text: Traditionally, it has been difficult to administer ibuprofen and other similar NSAIDs transdermally. […] This is particularly problematic for transdermal administration, given the high concentration of lipids in the stratum corneum. Consequently, formulating a transdermal ibuprofen-containing composition that is capable of penetrating through the stratum corneum in effective amounts is difficult.
Without wishing to be bound to any particular theory, it is believed that the ability of oleocanthal to remain in a neutral state over a broad pH range contributes to the ability of oleocanthal to more readily penetrate the stratum corneum, as compared to ibuprofen and similar NSAIDs. […] This is advantageous for transdermal delivery. Since most transdermal compositions are formulated to have a pH of from about 3.5 to about 8.5, and more typically from about 5.0 to about 6.0, oleocanthal will mostly be in its neutral, non-ionized state when the transdermal composition is contacted with skin. In contrast, ibuprofen and similar NSAIDs, which contain a carboxylic acid group that may begin to ionize at a pH of about 4.0, will be all or partly in their ionized state (and thus […]) when the transdermal composition is contacted with skin. Consequently, oleocanthal penetrates the stratum corneum more readily than ibuprofen and other similar NSAIDs.

Row | SMILES | pH at which the ionisable group begins to ionize [1] | solubility in fats and oils [2]
1 | CC(C)Cc1ccc(C(C)C(=O)O)cc1 (stereo not drawn) [ibuprofen, reference compound] | about 4.0 pH | –
2 | C/C=C(/C=O)[C@@H](CC=O)CC(=O)OCCc1ccc(O)cc1 [oleocanthal] | about 9.5 pH | highly soluble
